Reference: ChEMBL document CHEMBL1201862, “PubChem BioAssay data set” (2004)
Calls of active or inactive are those of the source. Rule as the data show it, for most assays here: actives have a measured EC50 and inactives only a lower limit.

Legend:
Beta-galactosidase = Beta-galactosidase (Escherichia coli, UniProt Q8VNN2); experiment: PubChem AID 485352; format: functional
[1] = M. tuberculosis H37Rv growth inhibitors, H37Rv strain (AID 1626); format: functional
[2] = target: T1, Type-1 angiotensin II receptor (Homo sapiens, UniProt P30556); experiment: antagonism of angiotensin II type 1 receptor – cell-based, uHTS hits, selectivity assay for APJ receptor antagonist project, dose response (AID 463214); format: functional;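 also: antagonist potency against angiotensin II stimulated AT1 response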
T1 sequence (P30556 whole entry): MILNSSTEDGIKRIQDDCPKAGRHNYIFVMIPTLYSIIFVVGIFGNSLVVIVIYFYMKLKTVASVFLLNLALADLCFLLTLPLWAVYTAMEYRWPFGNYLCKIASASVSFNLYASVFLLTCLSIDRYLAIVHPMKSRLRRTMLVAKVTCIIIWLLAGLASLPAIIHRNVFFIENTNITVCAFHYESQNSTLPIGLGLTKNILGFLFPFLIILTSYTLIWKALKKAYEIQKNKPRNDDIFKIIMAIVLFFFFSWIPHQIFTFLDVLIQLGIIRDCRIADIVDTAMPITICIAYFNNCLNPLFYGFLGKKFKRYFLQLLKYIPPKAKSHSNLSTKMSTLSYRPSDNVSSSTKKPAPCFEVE

[3] = NIH-3T3 fibroblast cytotoxicity, dose response, cytotoxicity control, cell-based, fluorescence, Alamar Blue, secondary assay (AID 2327); format: functional;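 also: NIH-3T3 mouse fibroblasts cultured with fluconazole at 8 µg/mL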
[4] = fluconazole-exposed Candida albicans growth modulators – fluorescence, retest, confirmation (AID 2467); format: functional, cell-based
[5] = target: T2, Serine/threonine-protein phosphatase (Candida dubliniensis (strain CD36 / CBS 7987 / NCPF 3949 / NRRLY-17841) (Yeast), UniProt B9W6M3); experiment: blockers of CaCl2-induced CDRE-lacZ signaling – S. cerevisiae, luminescence, secondary, dose response (AID 2388); format: functional, cell-based;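 also: yeast reporter cells carrying a calcineurin-responsive lacZ construct stimulated with calcium chloride; luminescent beta-galactosidase reporter signal in whole cells rather than isolated phosphatase activity; potency for inhibition where a drop in reporter signal means calcineurin blockade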
T2 sequence (B9W6M3 whole entry): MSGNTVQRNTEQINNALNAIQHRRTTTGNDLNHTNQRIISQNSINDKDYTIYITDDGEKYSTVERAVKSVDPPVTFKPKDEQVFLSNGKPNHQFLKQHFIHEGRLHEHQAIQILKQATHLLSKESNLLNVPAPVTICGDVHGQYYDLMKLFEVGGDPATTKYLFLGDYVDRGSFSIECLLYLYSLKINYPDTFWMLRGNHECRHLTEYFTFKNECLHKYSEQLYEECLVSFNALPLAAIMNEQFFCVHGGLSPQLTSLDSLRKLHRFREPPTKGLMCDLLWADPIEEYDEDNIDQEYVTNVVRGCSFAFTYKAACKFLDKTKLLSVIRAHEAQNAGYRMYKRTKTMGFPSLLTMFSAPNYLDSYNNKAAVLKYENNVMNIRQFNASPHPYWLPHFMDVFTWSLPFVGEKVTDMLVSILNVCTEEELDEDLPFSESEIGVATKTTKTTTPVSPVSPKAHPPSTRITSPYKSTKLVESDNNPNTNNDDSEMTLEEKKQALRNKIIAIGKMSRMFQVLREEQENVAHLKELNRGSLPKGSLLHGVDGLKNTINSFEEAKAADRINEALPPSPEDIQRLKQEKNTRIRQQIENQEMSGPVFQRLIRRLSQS

[6] = target: ATP-dependent molecular chaperone HSP82 (Candida albicans (strain WO-1) (Yeast), UniProt C4YTQ8); experiment: steroid-induced GRE reporter decrease in yeast – S. cerevisiae, luminescence, Hsp90 inhibitor project, dose response (AID 2400); format: functional, cell-based;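 also: beta-galactosidase luminescence from glucocorticoid response element reporter as proxy for Hsp90 function; inhibitor potency where signal loss means Hsp90 inhibition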
[7] = luciferase reporter signal suppression in cells – H4 neuroglioma cells, luminescence, dose response (AID 1990); format: functional, cell-based
BJ [8] = experiment: BJ-TERT fibroblast viability loss – cell-based, RAS-independent, luminescence, dose response (AID 1933); format: functional; settings: Homo sapiens
[9] = Luminescence Cell-Based Dose Response HTS to Identify Inhibitors of 5'UTR Stem-Loop Driven Prion Protein mRNA Translation in H4 Neuroglioblastoma Cells. [Related pubchem assays: 1827 (Project Summary), 1813 (Primary HTS)]; format: functional
[10] = alpha-synuclein stem-loop luciferase translation blockers – H4 neuroglioma cells, luminescence, confirmation (AID 1988); format: functional, cell-based
BJ [11] = experiment: cells; format: functional, cell-based; settings: Homo sapiens
BJ [12] = experiment: BJ-TERT-LT-ST fibroblast viability loss – cell-based, RAS-independent, luminescence, dose response (AID 1935); format: functional; settings: Homo sapiens;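 also: BJ fibroblasts immortalized with TERT plus LT and ST oncogenes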
[13] = DRD fibroblast viability loss – cell-based, non-viral oncogenic, luminescence, dose response (AID 1934); format: functional; settings: Homo sapiens
[14] = HEK-293T viability loss after treatment – luminescence, T-cell screen hits, cytotoxicity control for TCR NF-kB inhibitor project, dose response (AID 489026); format: functional, cell-based;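 also: cells exposed to compound about 14 hours before the viability readout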
BJ [15] = experiment: growth inhibition of engineered Ras-driven BJ cells – cell-based, alamar blue fluorescence, cherrypicked samples, dose response (AID 2631); format: functional; settings: Homo sapiens;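 also: confirmatory dose-response assay in RAS-dependent BJ fibroblasts engineered with TERT, LT and ST, with cytotoxicity read by fluorescence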
[16] = target: T3, Short transient receptor potential channel 4 (Mus musculus, UniProt Q9QUQ5); experiment: block of DAMGO-driven TRPC4 calcium entry – cell-based, HEK293 TRPC4/mu-opioid, Fluo-4 calcium, dose response (AID 434942); format: functional;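 also: potency of inhibitors blocking the TRPC4 calcium response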
T3 sequence (Q9QUQ5 whole entry): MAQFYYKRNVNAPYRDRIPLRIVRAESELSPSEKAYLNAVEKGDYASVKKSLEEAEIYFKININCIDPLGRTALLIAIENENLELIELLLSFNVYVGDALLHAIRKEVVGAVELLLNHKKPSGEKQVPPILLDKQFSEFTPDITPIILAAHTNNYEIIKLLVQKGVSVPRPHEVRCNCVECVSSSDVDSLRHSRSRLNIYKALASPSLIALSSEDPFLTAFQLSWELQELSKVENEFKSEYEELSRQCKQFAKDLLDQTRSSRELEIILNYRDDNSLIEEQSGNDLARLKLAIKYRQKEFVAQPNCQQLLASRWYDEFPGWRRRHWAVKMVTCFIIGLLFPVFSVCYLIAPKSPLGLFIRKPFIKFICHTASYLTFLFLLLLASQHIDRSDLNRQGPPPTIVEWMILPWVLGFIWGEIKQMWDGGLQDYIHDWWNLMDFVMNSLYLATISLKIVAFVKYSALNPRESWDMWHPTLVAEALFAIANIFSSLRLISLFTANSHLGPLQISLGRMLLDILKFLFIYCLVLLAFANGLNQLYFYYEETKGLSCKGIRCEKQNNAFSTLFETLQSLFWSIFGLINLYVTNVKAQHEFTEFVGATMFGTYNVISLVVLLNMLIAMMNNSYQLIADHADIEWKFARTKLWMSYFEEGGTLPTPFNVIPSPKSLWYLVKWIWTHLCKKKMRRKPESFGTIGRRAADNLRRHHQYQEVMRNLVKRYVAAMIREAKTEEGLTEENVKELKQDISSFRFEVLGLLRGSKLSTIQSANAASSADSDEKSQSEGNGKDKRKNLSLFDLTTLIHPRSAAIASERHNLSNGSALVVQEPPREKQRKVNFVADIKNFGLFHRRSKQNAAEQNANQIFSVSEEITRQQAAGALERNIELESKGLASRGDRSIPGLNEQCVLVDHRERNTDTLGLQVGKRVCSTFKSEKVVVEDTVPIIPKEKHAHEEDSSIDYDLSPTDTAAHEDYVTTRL

[17] = target: Peroxisome proliferator-activated receptor gamma/Nuclear receptor coactivator 1 (Homo sapiens, UniProt P37231); experiment: (§1) TR-FRET dose response biochemical High Throughput Screening assay for agonists of the steroid receptor coactivator 1 (SRC-1) recruitment by the peroxisome proliferator-activated receptor gamma (PPAR gamma): non-selective agonists. [Related pubchem assays (depositor defined):AID1300, AID1808, AID504735, AID631]; format: protein assay
[18] = target: Peroxisome proliferator-activated receptor gamma/Nuclear receptor coactivator 3 (Homo sapiens, UniProt P37231); experiment: as §1, with “3 (SRC-3)” for “1 (SRC-1)”, “assays: 1301 (Confirmation screen.), 1048 (Primary screen.)]” for “assays (depositor defined):AID1300, AID1808, AID504735, AID631]”; format: functional
[19] = target: Peroxisome proliferator-activated receptor gamma/Nuclear receptor coactivator 2 (Homo sapiens, UniProt P37231); experiment: TR-FRET dose response biochemical High Throughput Screening assay for agonists of the steroid receptor coactivator 2 (SRC-2) recruitment by the peroxisome proliferator-activated receptor gamma (PPAR gamma): non-selective agonists. [Related pubchem assays: 1297, 1032 ]; format: functional
[20] = target: Dual specificity tyrosine-phosphorylation-regulated kinase 1A (Rattus norvegicus, UniProt Q63470); format: biochemical, Homo sapiens
[21] = target: T4, Rac GTPase-activating protein 1 (Homo sapiens, UniProt Q9H0H5); experiment: blockers of MgcRacGAP-driven Rac1 GTP hydrolysis – biochemical, ADP Hunter fluorescence, primary and confirmatory, confirmation (AID 624330); format: functional
T4 sequence (Q9H0H5 whole entry): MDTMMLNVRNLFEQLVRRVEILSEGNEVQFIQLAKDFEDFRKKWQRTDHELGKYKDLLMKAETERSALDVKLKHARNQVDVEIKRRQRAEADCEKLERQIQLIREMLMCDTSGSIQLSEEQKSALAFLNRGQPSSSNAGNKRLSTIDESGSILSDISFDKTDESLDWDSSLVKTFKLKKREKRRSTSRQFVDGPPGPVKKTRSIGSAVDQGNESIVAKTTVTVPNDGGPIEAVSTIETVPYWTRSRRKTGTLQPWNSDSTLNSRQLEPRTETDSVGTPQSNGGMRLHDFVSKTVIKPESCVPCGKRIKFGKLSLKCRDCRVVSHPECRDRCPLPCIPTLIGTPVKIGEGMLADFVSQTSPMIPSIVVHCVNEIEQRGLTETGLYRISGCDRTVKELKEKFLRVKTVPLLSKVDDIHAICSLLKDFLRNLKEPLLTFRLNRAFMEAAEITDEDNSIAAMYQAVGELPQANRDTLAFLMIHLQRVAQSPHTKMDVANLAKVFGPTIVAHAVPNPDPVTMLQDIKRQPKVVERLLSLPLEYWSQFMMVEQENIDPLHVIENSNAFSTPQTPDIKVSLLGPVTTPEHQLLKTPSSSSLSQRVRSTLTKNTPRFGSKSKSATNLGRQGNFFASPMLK

Sequence of ATP-dependent molecular chaperone HSP82 (C4YTQ8 whole entry): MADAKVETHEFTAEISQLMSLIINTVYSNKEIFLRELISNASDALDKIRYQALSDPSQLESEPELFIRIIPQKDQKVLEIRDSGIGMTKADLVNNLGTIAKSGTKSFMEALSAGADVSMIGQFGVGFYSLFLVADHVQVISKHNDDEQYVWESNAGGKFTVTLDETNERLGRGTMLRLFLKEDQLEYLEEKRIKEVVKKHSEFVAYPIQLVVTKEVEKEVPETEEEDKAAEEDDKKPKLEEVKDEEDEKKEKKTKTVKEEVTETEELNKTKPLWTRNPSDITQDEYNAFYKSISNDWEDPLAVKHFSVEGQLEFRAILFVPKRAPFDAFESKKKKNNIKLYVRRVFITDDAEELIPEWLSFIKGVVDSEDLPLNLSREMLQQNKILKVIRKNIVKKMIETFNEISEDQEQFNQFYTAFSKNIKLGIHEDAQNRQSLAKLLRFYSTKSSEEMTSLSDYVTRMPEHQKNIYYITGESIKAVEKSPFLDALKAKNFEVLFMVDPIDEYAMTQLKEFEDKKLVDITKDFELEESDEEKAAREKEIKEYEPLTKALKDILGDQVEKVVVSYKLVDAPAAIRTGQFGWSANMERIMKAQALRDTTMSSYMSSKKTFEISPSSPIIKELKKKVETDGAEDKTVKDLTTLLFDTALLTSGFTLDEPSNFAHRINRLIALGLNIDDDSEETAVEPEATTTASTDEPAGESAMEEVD
Sequence of Peroxisome proliferator-activated receptor gamma/Nuclear receptor coactivator 2 (P37231 whole entry): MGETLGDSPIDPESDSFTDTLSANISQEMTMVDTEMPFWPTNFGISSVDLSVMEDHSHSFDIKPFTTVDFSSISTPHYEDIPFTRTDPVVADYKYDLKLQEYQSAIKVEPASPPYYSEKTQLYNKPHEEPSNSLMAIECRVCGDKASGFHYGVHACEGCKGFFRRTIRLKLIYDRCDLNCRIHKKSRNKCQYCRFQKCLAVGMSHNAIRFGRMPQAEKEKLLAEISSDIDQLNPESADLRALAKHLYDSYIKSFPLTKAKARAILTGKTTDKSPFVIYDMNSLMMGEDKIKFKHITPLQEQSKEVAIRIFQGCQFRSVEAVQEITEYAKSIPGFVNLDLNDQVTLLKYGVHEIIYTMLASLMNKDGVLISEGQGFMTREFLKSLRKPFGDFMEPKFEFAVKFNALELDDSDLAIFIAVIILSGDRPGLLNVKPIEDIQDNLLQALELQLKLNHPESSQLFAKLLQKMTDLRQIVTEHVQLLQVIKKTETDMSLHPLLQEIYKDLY
Sequence of Peroxisome proliferator-activated receptor gamma/Nuclear receptor coactivator 2 (Q15596 whole entry, further chain): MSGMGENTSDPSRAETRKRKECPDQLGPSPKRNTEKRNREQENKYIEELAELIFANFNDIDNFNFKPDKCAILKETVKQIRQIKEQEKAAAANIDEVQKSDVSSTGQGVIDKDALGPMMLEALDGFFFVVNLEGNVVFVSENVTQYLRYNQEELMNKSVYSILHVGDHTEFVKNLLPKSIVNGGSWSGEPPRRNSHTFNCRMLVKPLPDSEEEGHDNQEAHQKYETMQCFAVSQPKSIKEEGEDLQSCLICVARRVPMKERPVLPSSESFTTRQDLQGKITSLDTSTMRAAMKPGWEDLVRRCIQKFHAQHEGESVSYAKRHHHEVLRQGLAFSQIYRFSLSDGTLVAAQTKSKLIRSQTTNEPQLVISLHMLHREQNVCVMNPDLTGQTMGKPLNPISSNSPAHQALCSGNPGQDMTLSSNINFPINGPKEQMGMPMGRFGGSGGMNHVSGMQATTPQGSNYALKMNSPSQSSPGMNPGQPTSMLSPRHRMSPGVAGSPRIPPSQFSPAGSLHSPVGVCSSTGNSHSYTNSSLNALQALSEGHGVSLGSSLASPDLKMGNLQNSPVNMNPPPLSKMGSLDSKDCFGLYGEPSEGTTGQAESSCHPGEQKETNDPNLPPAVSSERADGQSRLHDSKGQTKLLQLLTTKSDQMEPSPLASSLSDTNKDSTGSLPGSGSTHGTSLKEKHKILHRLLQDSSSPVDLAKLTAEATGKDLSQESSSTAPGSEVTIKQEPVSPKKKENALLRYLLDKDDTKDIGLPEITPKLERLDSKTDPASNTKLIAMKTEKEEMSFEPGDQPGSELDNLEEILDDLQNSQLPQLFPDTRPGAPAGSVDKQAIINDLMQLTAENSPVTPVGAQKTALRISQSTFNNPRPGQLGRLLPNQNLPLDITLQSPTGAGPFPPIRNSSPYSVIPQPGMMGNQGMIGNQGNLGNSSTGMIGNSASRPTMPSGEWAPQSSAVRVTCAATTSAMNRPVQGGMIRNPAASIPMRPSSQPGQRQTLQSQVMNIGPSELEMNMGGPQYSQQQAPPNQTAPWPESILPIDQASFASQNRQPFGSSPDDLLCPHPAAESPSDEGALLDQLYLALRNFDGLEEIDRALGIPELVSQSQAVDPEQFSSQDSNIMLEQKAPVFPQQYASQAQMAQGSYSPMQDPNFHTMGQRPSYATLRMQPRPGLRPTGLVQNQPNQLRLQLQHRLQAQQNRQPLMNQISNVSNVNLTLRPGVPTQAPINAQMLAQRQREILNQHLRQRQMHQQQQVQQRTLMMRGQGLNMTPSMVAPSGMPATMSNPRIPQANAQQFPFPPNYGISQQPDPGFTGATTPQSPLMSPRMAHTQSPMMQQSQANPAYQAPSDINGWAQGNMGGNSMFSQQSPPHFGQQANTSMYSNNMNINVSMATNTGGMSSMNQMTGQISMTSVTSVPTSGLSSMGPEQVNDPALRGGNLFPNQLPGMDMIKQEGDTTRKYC
Sequence of Peroxisome proliferator-activated receptor gamma/Nuclear receptor coactivator 3 (P37231 whole entry): as the sequence (P37231 whole entry) above
Sequence of Peroxisome proliferator-activated receptor gamma/Nuclear receptor coactivator 3 (Q9Y6Q9 whole entry, further chain): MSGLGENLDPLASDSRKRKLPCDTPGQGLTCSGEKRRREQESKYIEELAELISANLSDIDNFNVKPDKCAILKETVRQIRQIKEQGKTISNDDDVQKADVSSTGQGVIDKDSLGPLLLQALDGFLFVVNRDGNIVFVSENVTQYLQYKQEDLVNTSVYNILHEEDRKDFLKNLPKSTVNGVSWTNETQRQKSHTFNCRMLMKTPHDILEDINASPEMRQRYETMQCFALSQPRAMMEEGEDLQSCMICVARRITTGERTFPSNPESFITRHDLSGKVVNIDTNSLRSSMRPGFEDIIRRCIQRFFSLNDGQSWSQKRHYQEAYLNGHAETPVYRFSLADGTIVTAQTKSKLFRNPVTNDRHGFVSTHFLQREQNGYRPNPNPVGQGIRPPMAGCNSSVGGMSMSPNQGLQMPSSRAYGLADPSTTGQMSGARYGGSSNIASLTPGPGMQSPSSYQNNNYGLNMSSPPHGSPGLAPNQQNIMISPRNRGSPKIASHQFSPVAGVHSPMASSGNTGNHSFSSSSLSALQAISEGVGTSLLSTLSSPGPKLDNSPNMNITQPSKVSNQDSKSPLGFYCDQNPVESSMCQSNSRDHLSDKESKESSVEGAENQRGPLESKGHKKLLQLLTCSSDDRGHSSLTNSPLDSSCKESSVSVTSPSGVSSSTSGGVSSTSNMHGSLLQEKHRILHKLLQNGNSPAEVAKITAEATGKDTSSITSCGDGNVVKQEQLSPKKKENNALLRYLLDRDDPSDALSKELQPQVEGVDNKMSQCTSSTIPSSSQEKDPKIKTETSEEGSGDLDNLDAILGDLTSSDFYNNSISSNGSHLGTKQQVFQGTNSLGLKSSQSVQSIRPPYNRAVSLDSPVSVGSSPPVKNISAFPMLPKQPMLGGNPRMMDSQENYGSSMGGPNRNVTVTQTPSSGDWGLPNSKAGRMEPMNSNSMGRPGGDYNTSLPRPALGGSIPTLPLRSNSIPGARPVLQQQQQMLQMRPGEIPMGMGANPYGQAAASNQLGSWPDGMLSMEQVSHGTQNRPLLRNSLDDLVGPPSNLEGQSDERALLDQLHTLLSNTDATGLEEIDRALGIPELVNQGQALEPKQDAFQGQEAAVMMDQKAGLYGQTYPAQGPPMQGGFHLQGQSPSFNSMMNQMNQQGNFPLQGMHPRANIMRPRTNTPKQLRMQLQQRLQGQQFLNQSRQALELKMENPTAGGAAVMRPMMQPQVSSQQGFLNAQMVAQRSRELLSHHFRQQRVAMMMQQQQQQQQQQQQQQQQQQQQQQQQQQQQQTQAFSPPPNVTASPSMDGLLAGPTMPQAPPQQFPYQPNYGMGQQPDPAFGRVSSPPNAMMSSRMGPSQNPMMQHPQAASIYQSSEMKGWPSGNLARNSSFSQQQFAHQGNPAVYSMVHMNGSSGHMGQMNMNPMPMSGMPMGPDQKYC

Structure (SMILES) | EC50 [3] | EC50 [4] | EC50 [5] | EC50 [6] | EC50 [7] | EC50 (BJ [8]) | EC50 [9] | EC50 [10] | EC50 (BJ [11]) | EC50 (BJ [12]) | EC50 [13] | EC50 (BJ [15]) | also measured
COc1ccc(/N=C2/C(=O)N3c4c(cccc42)C(C)=CC3(C)C)cc1 |  |  |  |  |  |  |  |  |  |  |  |  | EC50 (Beta-galactosidase): > 40 µM (inactive); IC50 [1]: > 100 µM (active); IC50 [2]: > 40 µM (not active)
CNC(=O)Nc1cc(C(F)(F)F)cc(C(F)(F)F)c1 | > 150 µM (inactive) | 1.34 µM (active) | > 180 µM (inactive) | > 150 µM (inactive) |  |  |  |  |  |  |  |  | 
O=C(N/N=C/c1ccccc1Cl)c1[nH]c2ccc(Br)cc2c1-c1ccccc1 |  |  |  |  | 0.304 µM (active) | 608 nM (active) | 0.136 µM (active) | 163 nM (active) | 27.5 µM (active) | 748 nM (inconclusive) | 615 nM (active) | 200 nM (active) | IC50 [14]: > 80 µM (inactive)
COc1ccc2c(c1)sc(N)[n+]2Cc1cc(C)cc2cccnc12 |  |  |  |  | 7.07 µM (inconclusive) | 1980 nM (active) | 8.01 µM (active) | 200 nM (active) | 1.55 µM (inconclusive) | 1500 nM (inconclusive) | 1610 nM (active) | 605 nM (active) | EC50 [16]: 1.33 µM (active)
Nc1c(S(=O)(=O)c2ccccc2)c2nc3ccccc3nc2n1CCN1CCOCC1 | > 160 µM (inactive) | 0.874 µM (active) | > 180 µM (inactive) | > 160 µM (inactive) |  |  |  |  |  |  |  |  | 
COc1cc(-c2nc3ccccc3s2)ccc1O |  |  |  |  |  |  |  |  |  |  |  |  | EC50 [17]: 11.7 µM (inactive); EC50 [18]: > 79.4 µM (not active); EC50 [19]: 13 µM (not active); AC50 [20]: 7.81 µM (active); IC50 [21]: 16.1 µM (active)
